# Peptide text beside a SMILES is read from it.
# What was measured:
# [1] = test system: BM-MNC; assay: BM-MNC adhesion onto gelatin/vitronectin or fibrin gels for 30 min after pre-treatment; assay type: cell-based, mouse; details: 2 h pre-treatment
# Experimental: Tibias, femurs and humerus of C57BL/6 male mice were carefully dissected, bone marrow was extracted and dissociated, and bone marrow mononuclear cells (BM-MNC) were separated by differential centrifugation on Ficoll gradients (Histopaque-1083, Sigma), (2,000 r.p.m, 25 min). BM-MNC were then washed with PBS and pelleted (2,000 r.p.m, 10 min).
# (§1) To evaluate the effects of TSP1 or peptides derived from its carboxyterminal sequence, 4N1-1 and 4N1-2, on cell adhesion onto gelatin/vitronectin, fibrin gels or activated SVEC monolayers, 2.10^6/ml BM-MNC or PBMC, or 10^6/ml HUCB-EPC were pretreated for 2 h at 37° C. in an incubator with 5% CO2, in the presence of TSP1 ([…]), or the 4N1-1 or 4N1-2 peptides (100 μM), or control BSA (1%), or with mouse monoclonal anti-human CD47 IgG1 B6H12 (40 μg/ml), or matched control isotype mouse IgG1 (40 μg/ml), before PBS washes and culture for the specified length of time. For adhesion experiments, supernatants were removed, adherent cells were gently washed with PBS. The number of adherent cells per high power field was counted in 3 to 5 fields per well using an inverted phase-contrast microscope at high magnification (×400).
# (§2) Mouse BM-MNC and HUCB-EPC adhesion was evaluated in vitro. The effects of purified or recombinant platelet proteins, or peptide agonists of the CD47/IAP receptor was characterized. Two main approaches were used: • 1. Pre-incubation of the cells with platelet proteins for 2 h before measuring their adhesion on gelatin/vitronectin control matrix or fibrin gels for 30 min. • 2. Cell adhesion on gelatin/vitronectin control matrix or fibrin gels for 16 h in the presence of platelet proteins in solution.
# [2] = test system: BM-MNC; assay: Endothelial differentiation of BM-MNC (Dil-Ac-LDL / BS1-lectin double labelling); assay type: cell-based, mouse; details: 2 h pre-treatment, 5 days culture, FIG. 12
# Experimental: BM-MNC were cultured onto gelatin/vitronectin in EBM medium for 5 days. After eliminating non adherent cells, EPC were identified through double-labelling for two endothelial characteristics: incorporation of Dil-labelled acetylated low density lipoproteins (Dil-Ac-LDL; 1 μg/ml, BioHarbor Products; red fluorescence) and binding of FITC-labelled BS1-lectin (1 μg/ml, Sigma; green fluorescence). Double fluorescence allowed the microscopic identification and counting of EPC in 3 to 5 fields per well (400× magnification). Experiments were repeated at least three times, and results expressed as percentages of EPC.
# Following the previous observation that TSP1 and peptide 4N1-1 stimulate BM-MNC adhesion in vitro, the inventors measured the endothelial differentiation of treated BM-MNC. BM-MNC were cultured for 5 days, following a 2 h pre-treatment with recombinant or purified TSP1, or with peptides 4N1-1, 4N1-2, or CSVTCG (a peptide derived from the TSP1 sequence). EPC-differentiated BM-MNC were identified by fluorescence microscopy after double-labelling for Dil-Ac-LDL incorporation and BS1 lectin binding.
# [3] = test system: HUCB-EPC; assay: HUCB-EPC adhesion onto gelatin/vitronectin or fibrin gels for 15 min after pre-treatment; assay type: cell-based, Human; details: 2 h pre-treatment, 15 min adhesion, FIG. 8
# Experimental: Human umbilical cord blood (30-50 ml) was collected in sterile tubes containing heparin (15 UI/ml, Sanofi) following standard protocols in agreement with Hôpital Lariboisiére and Inserm ethical guidelines. PBMC were isolated via Ficoll gradient centrifugation (Histopaque-1077, Dominique Dutscher). To eliminate mature endothelial cells, mononuclear cells were seeded (6.10^6 cells/ml) in culture dishes (100×20 mm) at 37° C. with 5% CO2 for 16 h. Adherent cells were eliminated. Non-adherent cells were cultured and differentiated into Human umbilical cord blood-derived endothelial progenitor cells (HUCB-EPC) in 6-well plates (10^7 cells/well) on collagen type 1 matrix (Coll1; 90 μg/ml, Sigma) in M199 growth medium (Gibco) complete with L-glutamine, HEPES buffer (25 mM; Eurobio), antibiotics and antimycotics (penicillin 10000 units/ml, streptomycin 10,000 μg/ml, fongizone 25 μg/ml) and 20% FCS (Dominique Dutscher), as well as 10 ng/ml VEGF (R&D Systems).
# as §1
# [4] = test system: BM-MNC; assay: BM-MNC adhesion onto gelatin/vitronectin for 16 h with proteins in solution; assay type: cell-based, mouse; details: 16 h in presence of 100 μg/ml, FIG. 3
# Experimental: as §2
# BM-MNC were incubated for 16 h on gelatin/vitronectin matrix in the presence of PPP, recombinant TSP1 (100 μg/ml), or peptide 4N1-1 (100 μM) before adhesion was quantified through direct cell counts by phase-contrast microscopy. As reported in FIG. 3, TSP1 stimulated adhesion by over three fold compared to the gelatin/vitronectin control (+206.8%, p<0.05).
# [5] = test system: BM-MNC; assay: BM-MNC adhesion onto interleukin-1β-pre-activated murine endothelial monolayers; assay type: cell-based, mouse; details: 2 h pre-treatment; TSP1 10 μg/ml, 4N1-1 100 μM; 30 min adhesion, FIG. 9
# Experimental: SV40-transformed mouse lymph node endothelial cells (SVEC from ATCC), were grown in Dulbecco's Modified Eagle Medium (DMEM) supplemented with 20% FCS in 24 well plaques until they reached full confluency (7 days). SVEC monolayers were activated with 5 nM murine interleukin-1β (Calbiochem) for 2 h prior to cell-cell adhesion experiments.
# as §1
# BM-MNC were pre-treated for 2 h with recombinant or purified human TSP1 (10 μg/ml), or with peptide 4N1-1 (100 μM), and measured their adhesion after 30 min onto interleukin-1β-pre-activated murine endothelial monolayers. […]
# [6] = test system: BM-MNC; assay: Apoptosis evaluation via observation of nuclear morphology; assay type: cell-based, mouse; details: 100 μM, pre-treated or continued presence, 5 days of culture, FIG. 13
# Experimental: BM-MNC were grown onto gelatin/vitronectin matrix for 5 days in EBM in the continued presence of TSP1 or the 4N1-1 and 4N1-2 peptides, or treated for the last 24 h only. […] Non adherent cells were eliminated and adherent cells fixed with PBS-PFA 4% followed by addition of DAPI (Di-aminidophenylindol, 0.01 mg/ml) that becomes fluorescent after integration between DNA bases. […] Experiments were repeated at least three times.
# After observing increased BM-MNC adhesion following treatment with peptide 4N1-1, the inventors examined the extent of apoptosis triggered by peptide 4N1-1.
# [7] = systemic injection of significant doses; cited from earlier work
# [8] = test system: BM-MNC; assay: Apoptosis evaluation via quantification of intact DNA content; assay type: cell-based; details: 50 μM for 10 or 120 min, culture up to 24 hours, FIG. 29
# Experimental: BM-MNC were isolated and treated with 4N1-1 peptide for 10 or 120 min, washed with PBS and cultured in EBM onto gelatin/vitronectin matrix for up to 24 hours. Untreated fresh cells served as control for live cells. […] After treatment and culture, non adherent and adherent cells were harvested and analyzed separately, fixed with ice-cold ethanol 70% in PBS, and incubated for 45 min in PBS containing Triton X-100 (0.05%), propidium iodide (PI; 50 μg/ml) and RNase-A (100 μg/ml). PI becomes fluorescent after integration between DNA bases. […] Experiments were repeated three times.
# The inventors examined the extent of apoptosis in BM-MNC treated with peptide 4N1-1 and 4N1-2, using a second method. BM-MNC were pre-treated with 4N1-1 or 4N1-2 (50 μM) for 10 or 120 min, and cultured in full EBM2 medium, with serum and growth factors for up to 24 hours, to allow potential apoptotic reactions to proceed (FIG. 29). […] After culture, adherent and non-adherent cells were harvested and analyzed separately.
# [9] = BM-MNC, 30 min adhesion, FIG. 1
# [10] = 30 min adhesion, gelatin/vitronectin, FIG. 26
compound,measurement,setting,value
"TSP1: recombinant or purified Thrombospondin-1, not specified which at b144",stimulation of adhesion on fibrin compared with BSA,[1]; [9],+74.0%
same,stimulation of adhesion onto gelatin/vitronectin compared with BSA,[1]; [9],+160.6%
leptin: recombinant human leptin (Biovision),modulation of BM-MNC adhesion compared with BSA,"[1]; SDF1 100 ng/ml, EphB2-Fc 3 μg/ml, EBM2 50%, leptin 100 ng/ml, gelatin/vitronectin 30 min, FIG. 27",moderate increase
recombinant TSP1: Human recombinant Thrombospondin-1 produced by EMP-Genetech,stimulation of endothelial differentiation vs BSA,[2],+28.0%
same,stimulation of HUCB-EPC adhesion onto fibrin compared with BSA,[3],+37.6%
same,stimulation of HUCB-EPC adhesion onto gelatin-vitronectin compared with BSA,[3],+106.3%
same,stimulation of adhesion compared to the gelatin/vitronectin control,[4],+206.8%
same,concentration at which maximal stimulation of adhesion was reached,"[1]; 30 min adhesion, FIG. 2",20 µg/mL
same,concentration from which adhesion onto gelatin/vitronectin was stimulated significantly,"[1]; 30 min adhesion, FIG. 2",≥ 5 µg/mL
same,stimulation of BM-MNC adhesion onto gelatin/vitronectin compared with BSA,"[1]; 30 min adhesion, FIG. 7",+65.6%
same,maximal stimulation of adhesion onto gelatin/vitronectin compared with BSA,"[1]; at 20 μg/ml, FIG. 2",+179.3%
same,stimulation of adhesion onto endothelial monolayers compared with BSA,[5],+34.2%
CSVTCG (TSP-1 fragment) [reference compound],inhibition of adhesion compared with BSA,"[1]; 30 min adhesion, gelatin/vitronectin, FIG. 7",21%
CSCC[C@H](NC(=O)[C@@H](NC(=O)[C@@H](NC(=O)[C@H](Cc1ccc(O)cc1)NC(=O)[C@H](Cc1ccccc1)NC(=O)[C@@H](N)CCCNC(=N)N)C(C)C)C(C)C)C(=O)N[C@@H](Cc1c[nH]c2ccccc12)C(=O)N[C@@H](CCCCN)C(=O)O [4N1-1],apoptosis compared to BSA,[6],did not stimulate apoptosis significantly
FIRVVMYEGKK (7N3 peptide),modulation of BM-MNC adhesion compared with BSA,[1]; [10],stimulated BM-MNC adhesion significantly
KRFYVVMWKK (4N1K peptide),gross coagulation parameters,[7],does not modulate gross coagulation parameters
same,lethality,[7],not lethal
"FIRGGMYEGKK (7NGG) [mutated 7N3, reference compound]",modulation of BM-MNC adhesion compared with BSA,[1]; [10],no significant modulation
purified TSP1: Human purified Thrombospondin-1 prepared at Inserm Unit U553,stimulation of endothelial differentiation vs BSA,[2],+28.9%
same,stimulation of HUCB-EPC adhesion onto fibrin compared with BSA,[3],+33.3%
same,stimulation of HUCB-EPC adhesion onto gelatin-vitronectin compared with BSA,[3],+52.5%
same,stimulation of BM-MNC adhesion onto gelatin/vitronectin compared with BSA,"[1]; 30 min adhesion, FIG. 7",+143.8%
same,stimulation of adhesion onto endothelial monolayers compared with BSA,[5],+40.5%
"CSCC[C@H](NC(=O)[C@@H](NC(=O)[C@@H](NC(=O)[C@H](Cc1ccc(O)cc1)NC(=O)[C@H](Cc1ccccc1)NC(=O)[C@@H](N)CCCNC(=N)N)C(C)C)C(C)C)C(=O)O [4N1-2, RFYVVM, reference compound] (H-RFYVVM-OH)",apoptosis compared to BSA,[6],did not stimulate apoptosis significantly
same,"apoptosis compared to staurosporine or control, adherent and non-adherent cells",[8],did not stimulate apoptosis significantly
"RFYGGMWK (4NGG) [mutated 4N1-1, reference compound]",modulation of BM-MNC adhesion compared with BSA,[1]; [10],no significant modulation
